Experimental data as given in PubChem BioAssay (NCI).
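Method: 48-hour compound exposure of cells in 96-well plates, five concentrations, linear interpolation of endpoints. GI50: concentration for 50% inhibition of growth. TGI denotes the concentration required for complete inhibition of growth.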

Key:
Assay in all cases: NCI anticancer screen, dose series, 48 h
HCT-15 colon = system: HCT-15 colon
M14 melanoma = system: M14 melanoma
MALME-3M melanoma = system: MALME-3M melanoma
MOLT-4 leukemia = system: MOLT-4 leukemia
NCI-H226 lung = system: NCI-H226 lung
RXF 393 renal = system: RXF 393 renal
SF-539 CNS = system: SF-539 CNS
U251 CNS = system: U251 CNS

SMILES	GI50 (HCT-15 colon) [µM]	TGI (HCT-15 colon) [µM]	GI50 (M14 melanoma) [µM]	TGI (M14 melanoma) [µM]	GI50 (MALME-3M melanoma) [µM]	TGI (MALME-3M melanoma) [µM]	GI50 (MOLT-4 leukemia) [µM]	TGI (MOLT-4 leukemia) [µM]	GI50 (NCI-H226 lung) [µM]	TGI (NCI-H226 lung) [µM]	GI50 (RXF 393 renal) [µM]	TGI (RXF 393 renal) [µM]	GI50 (SF-539 CNS) [µM]	TGI (SF-539 CNS) [µM]	GI50 (U251 CNS) [µM]	TGI (U251 CNS) [µM]
COC(=O)C(Cc1cnc[nH]1)NC(=O)CNC(=O)CCCn1c(=O)c2c3ccccc3n(C)c2n2nnc(-c3ccccc3)c12 (centres undefined)	> 100	> 100	> 100	> 100	> 100	> 100	> 100	> 100	> 100	> 100	> 100	> 100	> 100	> 100	> 100	> 100
NC(=O)C1c2ccccc2C=Cc2ccccc21	> 100	> 100	> 100	> 100	> 100	> 100	> 100	> 100	> 100	> 100	> 100	> 100	> 100	> 100	> 100	> 100
O=C(CSc1nc2ccccc2nc1-c1ccccc1)Nc1ccc(Cl)cc1	76.7	> 100	23.7	> 100	27.2	78	> 100	> 100	16.7	51.1	19.1	62.7	16.3	36.6	23.6	67.7
COc1cc2c3c(c4ccc(OC)c(OC)c4c2cc1OC)CN1CCC[C@@H]1C3		11.4		2.56		0.509		0.252		0.263		0.29		0.425		> 23.3
Nc1ccccc1SC(CC(=O)c1ccccc1)c1ccc([N+](=O)[O-])cc1 (centres undefined)	8.51	22.4	13.8	27.8	15.3	30.3	13.5	60.1	18	36.3	15.8	29.6	17.2	31.1	4.51	16.9
COC(=O)[C@@]1(Cc2ccccc2)[C@H]2c3cc(C(=O)N4CCCC4)n(Cc4ccc(OC)c(OC)c4)c3C[C@H]2CN1C(=O)c1ccccc1	7.77	14.5	11.5	25.7	10.4	21	7.94	32.8	9.78	19.3	5.89	12.8	9.73	18.1	13	40.7
CC1=CC(=O)CC(C)(C)C1(O)/C=C/C(C)=C/C(=O)O (centres undefined)		> 100		> 100		> 100		> 100		> 100		> 100		> 100		> 100
C[C@H]1CC[C@H]([C@@H](C)[C@H]2[C@@H](O)C[C@H]3[C@@H]4CC[C@H]5C[C@@H](O)CC[C@]5(C)[C@H]4CC[C@]23C)NC1		36.6		59.2		33		27.4		39.5		47.7		53.7		31.9
